Data reported in paper PMC8208785, “Therapeutic efficacy of novel memantine nitrate MN‐08 in animal models of Alzheimer’s disease” (Aging Cell, 2021).

Key:
[1] = system: cerebellar granule neurons (CGNs); experiment: Hoechst 33342 staining of apoptotic bodies in glutamate-challenged CGNs; format: cell-based, rat; conditions: 24 h glutamate 100 µM
Experimental: CGNs were prepared from the 8-day-old Sprague–Dawley rats as described in our previous publication (Li et al., 2005). Briefly, animals were anesthetized and sacrificed, and their cerebella were collected. Then, the freshly collected cerebella were rinsed in cold Kreb’s buffer-BSA and digested with 0.025 % trypsin incubated in a 37°C for 15 min. The reaction was stopped, and the single cell suspension was obtained through pipetting up and down the sedimentary tissue. CGNs were seeded in basal modified Eagle’s medium (ThermoFisher Scientific, Waltham, MA, USA) supplemented with 10 % fetal bovine serum, 25 mM KCl, 2 mM glutamine and 100 units/mL penicillin/streptomycin at a density of 1.5×10^6 cells/mL. […]
Chromatin condensation, the apoptotic characteristic feature, was determined by Hoechst 33342 staining as described in previous publications with some modifications (Guo et al., 2017; Jiajia et al., 2017). […] The nuclei were visualized by using a fluorescence Leica TCS SPE confocal (Leica, Wetzlar, Germany) at 200× magnification. In the observation, cells with bright blue fragmented nuclei, which were showing condensation of chromatin, were counted as apoptotic cells. Condensed nuclei were scored by counting at least 500 cells of three randomly chosen fields for each sample in three separated experiments.

[2] = system: primary hippocampal neurons; experiment: intracellular Ca2+ by Fluo-4 confocal microscopy in primary hippocampal neurons; format: cell-based, rat; conditions: glutamate 100 µM
Experimental: Rat hippocampal neurons were obtained from 18-day-old Sprague-Dawley rat embryos as previously described with modifications (Subramaniam et al., 2005). The hippocampi were obtained and dissected on ice. Then, the hippocampi were digested with 0.25 % trypsin at 37°C for 15 min. The single neurons were mechanically dissociated by using a Pasteur pipette. The neurons were plated at a density of 2×10^5 cells/mL on 35-mm culture dishes, which were pre-coated with poly-L-lysine (10 μg/mL), in neurobasal eagle’s medium containing 10 % fetal bovine serum, 0.5 mM glutamine, 100 units/mL of penicillin, 100 μg/mL of streptomycin. […]
A confocal laser scanning microscope was used to evaluate relative changes in intracellular calcium concentrations [Ca^2+]i by monitoring Fluo-4 fluorescence after intracellular cleavage of superfused Fluo-4 acetoxymethylester (1 μM, with excitation at 488 nm and emission at 510 nm) (Bkaily, Al-Khoury, Simon, & Jacques, 2017). […] The fluorescence images were obtained by Leica TCS SPE Confocal Microscope and analyzed using the LAS AF software (Leica Microsystems Co., Wetzlar and Mannheim, Germany). The data were obtained by evaluating the fluorescence (F) from selected areas within a cell, following subtraction of background fluorescence, and division by the fluorescence intensity before drug application (F0), expressed as F/F0. […]

APP/PS1 mice = experiment: Aβ plaque staining and Aβ ELISA in brains of APP/PS1 mice; format: in vivo; conditions: for amyloid plaque burdens (Aβ1‐42, Aβ1‐16 staining): prevention study, hippocampus and cortex
Experimental: APP/PS1 transgenic mice were purchased from Jackson Laboratory and reproduced in the Shenzhen Center for Disease Control and Prevention (Shenzhen, China). Two‐month‐old APP/PS1 mice were divided into four groups: (1) APP/PS1 + Vehicle group; (2) APP/PS1 + MN‐08 (6 mg/kg) group; (3) APP/PS1 + Memantine (Mem, 5 mg/kg) group; (4) APP/PS1 + Donepezil (Done, 1.3 mg/kg, once daily) group; (5) Two‐month‐old C57BL/6J mice as a control group. The APP/PS1 mice were administered drugs twice a day (Done, once daily) by gastric gavage from ages 2 to 8 months for 6 months successively. Control and vehicle groups received equal volumes of saline.
To evaluate the concentration of soluble and insoluble Aβ in AD mice, the hippocampus and cortex were homogenized in the lysate, which was then centrifuged at 12000 g for 30 min at 4°C. Supernatant samples were collected as soluble Aβ. Sediment of the cortex and hippocampus was resuspended with formic acid, incubated on ice for 60 min and then centrifuged at 12,000 g for 30 min at 4°C. The supernatant and Tris/NaH2PO4 buffer were mixed as insoluble Aβ. The concentration of Aβ was analyzed by ELISA kit of human amyloid β (R&D Systems, Minneapolis, MN, USA) following the manufacturer’s instructions.
Immunohistochemistry and immunofluorescence staining were carried out as previously described (Zhang et al., 2017). Coronal brain sections were incubated with […] sodium citrate (pH 6.0) and heated for 15 min. After cooling to room temperature, the sections were immersed in 3 % H2O2 for 10 min followed by blocking solution (10 % fetal bovine serum, 1 % bovine serum albumin and 0.1 % Triton X-100) for 1 h. Sections were then incubated with the following appropriate primary antibodies overnight at 4°C: anti-Aβ1-42 antibody (#ab10148, 1:1000, Abcam), anti-Aβ1-16 antibody (#803014, 1:1000, Abcam) and anti-NeuN antibody (#ab177487, 1:400, Abcam). After rinsing 3 times, the sections of immunohistochemistry staining were incubated with biotin-conjugated universal secondary antibody (Gene Tech, Shanghai, China). For immunofluorescence staining, the sections were incubated with appropriate secondary antibodies for 2 h at room temperature. Image J software was used to analyze the fluorescence intensity and cell counting from six slices at similar coronal positions of each animal; this was performed by a viewer blinded to the experimental group.

[3] = toxicology study in beagle dogs (NOAEL); conditions: dog, in vivo
Experimental: Forty healthy adult beagle dogs were randomly divided into 4 groups of 5 males (weighing 6.43-8.40 kg) and 5 females (weighing 5.39-6.77 kg) each: (1) Placebo group; (2) MN-08 (4 mg/kg) group; (2) MN-08 (12 mg/kg) group; (3) MN-08 (24 mg/kg) group. MN-08 tablets were administered to beagle dogs by gastric gavage for 4 weeks. The no observed adverse effect level (NOAEL) was examined according to previously described (Brownawell, Carmines, & Montesano, 2011).

Compound	numbers of apoptotic bodies ([1]; MN‐08 30 µM)	intracellular Ca2+ influx caused by glutamate ([2]; MN‐08 30 µM)	amyloid plaque burdens (Aβ1‐42, Aβ1‐16 staining) (APP/PS1 mice; MN‐08 6 mg/kg)	soluble and insoluble Aβ1–42 (ELISA) (APP/PS1 mice; MN‐08 6 mg/kg, hippocampal and cortical regions)	levels of Aβ1–40 (ELISA) (APP/PS1 mice; MN‐08 6 mg/kg, hippocampi and cortices)	NOAEL at 4 weeks ([3]; both sexes, beagle, po)	numbers of apoptotic bodies ([1]; memantine 10 µM)	intracellular Ca2+ influx caused by glutamate ([2]; memantine 10 µM)	amyloid plaque burdens (Aβ1‐42, Aβ1‐16 staining) (APP/PS1 mice; memantine 5 mg/kg)	NOAEL ([3]; beagle dogs, memantine, regimen not stated, read-out: no observed adverse effect level (NOAEL))
CCC12CC3CC(N)(C1)CC(CO[N+](=O)[O-])(C3)C2 (stereo not shown) [MN‐08]	significantly reduced	inhibited	obviously attenuated	significantly decreased	no significant difference	24 mg/kg	–	–	–	–
CC12CC3CC(C)(C1)CC(N)(C3)C2 [memantine, 1‐amino‐3,5‐dimethyladamantane]	–	–	–	–	–	–	significantly reduced	inhibited	obviously attenuated	9 mg/kg
